Measurements published in patent EP4623918A1, “AGENT FOR INCREASING BRAIN PLASMALOGEN, AND USE OF ORAL COMPOSITION AND COMPOUND FOR INCREASING BRAIN PLASMALOGEN” (Institute of Rheological Function of Food Co., Ltd., priority 2022, dated 2024).

What was measured:
MeCP2-deficient mice = test: Effect of KIT-13 on brain plasmalogen in cerebral cortex tissue lysate (LC-MS/MS), MeCP2-deficient mice; assay type: in vivo; conditions: male MeCP2-deficient mice, 20 ng/g body weight twice a week by drinking-water administration for three weeks, vs control group given water
Method: Four-week-old male MeCP2-deficient mice lacking the MeCP2 gene on the X chromosome were used in the test. The MeCP2-deficient mice were divided into two groups: a control group (MeCP2-KO) and a KIT-13 administration group (KIT-13).
For the KIT-13 administration group, KIT-13 was suspended in water by ultrasonication, and administered twice a week by drinking-water administration such that 20 ng/g body weight of KIT-13 was taken. In contrast, the control group was given only water in a similar manner. KIT-13 was administered for three weeks until the mice were seven weeks old, and the cerebral cortex was collected from the brains of the mice.
(§1) The collected cerebral cortex was homogenized in a lysate (0.25 M sucrose, 10 mM HEPES-KOH (pH 7.4), 1 mM EDTA, and a protease inhibitor cocktail) to prepare a tissue lysate (25 µg protein). To the tissue lysate in a sample tube, 400 µL of MeOH and 100 µL of internal standard IS (C12 phosphatidylethanolamine (PE) and C12 phosphatidylcholine (PC)) dissolved in chloroform/methanol (C:M=1:2) were added and then mixed. The resulting mixture was transferred to a glass tube. […] Thereafter, the sample was dried under nitrogen gas, dissolved in MeOH, and analyzed using liquid chromatography-mass spectrometry (LC-MS/MS). […]

[1] = test system: wild-type mice (male, C57BL/6J mice); test: Effect of KIT-13 on cerebral cortex PlsEtn (LC-MS/MS), wild-type mice; assay type: in vivo; conditions: wild-type male C57BL/6J mice; KIT-13 given as in Example 2 for four weeks; control group taken as 1; FIG. 2
Method: For the KIT-13 administration group, KIT-13 was suspended in water by ultrasonication, and administered twice a week by drinking-water administration such that 20 ng/g body weight of KIT-13 was taken. In contrast, the control group was given only water in a similar manner. […]
as §1, with “tube. Then, 200 µL of MeOH was added again to the sample tube, and after the same operation, the resulting mixture was transferred to the glass tube. To the sample, 1.2 mL of C/M (1:1) was added, mixed, sonicated for 5 minutes, and left to stand for 60 minutes.” for “tube.”
Four-week-old wild-type mice (male, C57BL/6J mice, manufactured by the Jackson Laboratory Japan, Inc.) were divided into two groups: a control group and a KIT-13 administration group. […] PlsEtn in the collected cerebral cortex was quantified as with Example 2.

CCCCCC=CCC=CCC=CCC=CCCCC(=O)OC(COCCCCCCCCCCCCCCCCCC)COP(=O)(O)OCCN [KIT-13, 2-(hydroxy((R)-2-(((5Z,8Z,11Z,14Z)-icosa-5,8,11,14-tetraenoyl)oxy)-3-(octadedecyloxy)propoxy)phosphoryl)oxy)ethane-1-ammonium 2,2,2-trifluoroacetate]
significantly increased: concentration of PlsEtn in the tissue lysate (MeCP2-deficient mice; p < 0.05, FIG. 1A) | concentration of PlsEtn in which the sn-1 position is a saturated aliphatic hydrocarbon group having 18 carbon atoms (PlsEtn-C18:0), in the tissue lysate (MeCP2-deficient mice; p < 0.05, FIG. 1B) | relative PlsEtn amount in the cerebral cortex [1]
